Measured values taken from patent US20220040109A1, “KIDNEY-TARGETING DRUG DELIVERY CARRIER” (KYOTO PHARMACEUTICAL UNIVERSITY, priority 2017, published 2022).

Experiment: Toxicity in mouse (plasma creatinine, BUN, kidney histology)
Assay type: in vivo, ddY mice
Conditions: compound 1a 1 mg/kg intravenous once per day for 5 days
Description: Six days after the first intravenous injection, under isoflurane anesthesia, the blood was collected from the vena cava to sacrifice the mice. Plasma creatinine and urea nitrogen (BUN) levels were respectively measured using a creatinine measurement kit (LabAssay, Wako) and a BUN measurement kit (DIUR-100, BioAssay System). Thereafter, kidneys were excised, fixed with 4% paraformaldehyde, and embedded in paraffin blocks. Then, 5-μm-thick sections were prepared. The kidney sections were stained with hematoxylin and eosin, and renal injury was evaluated using a light microscopy (Biozero, KEYENCE). In addition, when HgCl2 was administered as a positive control, plasma creatinine, BUN level and kidney sections were also evaluated by the above-mentioned methods.

For `[Cl][Hg][Cl]` [HgCl2], the “histological sections of renal tissues (hematoxylin and eosin)” value (HgCl2 positive control, FIG. 10C) was “infiltration and necrosis of inflammatory cells and damaged cells were observed”, the “plasma concentration of creatinine” value (HgCl2 subcutaneous positive control, FIG. 10A) was “significantly increased” and the “plasma concentration of BUN” value (HgCl2 subcutaneous positive control, FIG. 10B) was “significantly increased”.
